Activity calls are given as the source filed them. The calls are words filed in the database; no cut-off is given here.
What was measured:
3T3-L1 = experiment: Cytotoxicity against mouse 3T3-L1 cells assessed as reduction in cell viability by MTT assay; type: cell-based
Mus musculus [1] = experiment: Hypolipidemic activity in tyloxapol-induced Kunming mouse model of hyperlipidemia assessed as reduction in serum AST level administered orally measured after 24 hrs; type: functional, organism-based
Mus musculus [2] = experiment: In vivo induction of AMPK in tyloxapol-induced Kunming mouse model of hyperlipidemia assessed as decrease in SREBP1-C expression in liver at 50 to 100 mg/kg, po measured after 24 hrs by Western blot analysis; type: functional, organism-based; details: dose 50-100 mg/kg

## CC(C)=CCC/C(C)=C/Cc1c(O)cc(O)c(C(=O)/C=C/c2ccc(O)cc2)c1O
3T3-L1
  Activity: Non-Toxic
Mus musculus [1]
  Activity: Dose-dependent effect
Mus musculus [2]
  Activity: Active

Reference: ChEMBL document CHEMBL4765421, “Synthesis of natural 3'-Prenylchalconaringenin and biological evaluation of ameliorating non-alcoholic fatty liver disease and metabolic syndrome” (Eur J Med Chem, 2020)
